The source of these data is US20170190726A9, “PRODRUG FOR RELEASE OF CISPLATIN AND CYCLOOXYGENASE INHIBITOR” (priority 2013, published 2017).

In one assay the target is T1, ovine COX-2 (Ovis aries, UniProt P79208).
T1 construct: purchased Cayman Chemicals 560101
T1 sequence (P79208 17-603): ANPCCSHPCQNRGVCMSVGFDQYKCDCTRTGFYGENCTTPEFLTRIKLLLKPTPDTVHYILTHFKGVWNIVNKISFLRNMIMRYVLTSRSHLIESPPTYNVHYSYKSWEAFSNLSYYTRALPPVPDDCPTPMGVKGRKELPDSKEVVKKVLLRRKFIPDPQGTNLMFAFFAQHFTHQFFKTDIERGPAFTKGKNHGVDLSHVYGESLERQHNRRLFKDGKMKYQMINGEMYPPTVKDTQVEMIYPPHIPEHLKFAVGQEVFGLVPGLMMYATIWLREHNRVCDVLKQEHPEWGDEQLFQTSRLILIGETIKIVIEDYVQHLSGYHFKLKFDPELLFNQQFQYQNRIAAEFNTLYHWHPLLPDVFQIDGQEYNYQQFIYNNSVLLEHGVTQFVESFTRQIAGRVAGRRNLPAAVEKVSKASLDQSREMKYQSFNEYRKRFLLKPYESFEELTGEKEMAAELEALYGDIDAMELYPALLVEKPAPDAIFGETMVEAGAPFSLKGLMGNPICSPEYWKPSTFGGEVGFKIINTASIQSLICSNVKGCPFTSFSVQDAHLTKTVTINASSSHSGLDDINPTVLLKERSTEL
The experiment in a line: In vitro COX inhibition assay (EIA), COX-2. It is filed as biochemical. The conditions noted are these: ovine COX-2, EIA, 0.75-2 mM, aspirin as positive control. How it is done: An enzyme immunoassay (EIA) kit from Cayman Chemicals (catalogue number 560101) was used to assess the ability of Platin-A to inhibit ovine COX-1 and COX-2. COX inhibition assay was performed as per the manufacturer protocol. All stock solutions were prepared following manufactures instruction. This inhibition assay was carried out using a two-step process: COX reaction and EIA. COX reaction involved preparation of following samples.
(i) Background samples: COX-1 and COX-2 were inactivated by transferring 20 μL of each enzyme to an eppendorf tube and placing the tube in boiling water for 3 min. […] (ii) COX-1 or COX-2 100% initial activity samples: 950 μL of reaction buffer, 10 μL of heme, 10 μL of COX-1 or COX-2, and 20 μL of reaction buffer were added to each test tube. (iii) COX-1 or COX-2 inhibitor samples: 950 μL of reaction buffer, 10 μL of heme, 10 μL of COX-1 or COX-2 and 20 μL of COX-1 and COX-2 inhibitors under investigation, aspirin and Platin-A of different concentrations (0.25, 0.5, 0.75, 1, and 1.5 mM for COX-1; 0.75, 1, 1.25, 1.5, and 2 mM for COX-2) were added to each test tube.
All the samples were incubated for 5 min in water bath at 37° C. […]
For EIA, 100 μL of EIA buffer was added to non-specific binding well and 50 μL of EIA buffer to maximum binding wells. […] Absorbance was recorded at a wavelength of 410 nm using a plate reader.

The next assay concerns IL-6. The experiment in a line: ELISA of IL-6 in LPS-stimulated RAW 264.7 macrophages. It is filed as cell-based, mouse. (In general: In an ELISA, binding on a coated surface is turned into a signal by an enzyme label.)

Description for IL-6: RAW 264.7 cells were plated at a concentration of 10,000 cells/mL in 96 plates and allowed to grow overnight. For preventative anti-inflammatory treatment, Platin-A (10 μM), aspirin (10 μM), cisplatin (10 μM) and an equimolar ratio of cisplatin and aspirin (10 μM each) was incubated with the RAW cells for 6 h. Lipopolysaccharide (LPS) (100 ng/mL) was added and the cells were further incubated for 12 h. For therapeutic anti-inflammatory treatment, LPS (100 ng/mL) was added to the RAW cells and incubated for 6 h. Platin-A (10 μM), aspirin (10 μM), cisplatin (10 μM) and an equimolar ratio of cisplatin and aspirin (10 μM each) was then added to the cells and incubated for 12 h. ELISA was performed on the supernatants against the cytokines interleukin (IL)-6, IL-10, and TNF-α. Briefly, antibody coated plates were blocked with 10% FBS in PBS for 1 h at room temperature followed by 3 washes. RAW cell supernatants were incubated on the plates for 2 h at room temperature. This was immediately followed by washings and sequential incubations with the cytokine-biotin conjugate and streptavidin working solution. Finally, the substrate reagent containing 3,3′,5,5′-tetramethylbenzidine (100 μL) was added to each well, incubated for 15 min, the reaction was stopped by adding 50 μL H2SO4 (0.1 M). The absorbance was recorded at 450 nm using a BioTek Synergy HT well plate reader.

For the compound `CC(=O)Oc1ccccc1C(=O)[O][Pt]([NH2])([NH2])([OH])([Cl])[Cl]` [Platin-A], the COX-2 inhibition entry at ovine COX-2 was “very similar inhibition of both COX-1 and COX-2 as shown by aspirin”. Moreover, the “LPS-induced IL-6 production” value in the assay with IL-6 (preventive: pretreatment 10 μM 6 h, then LPS 12 h) is “significantly inhibited”. Further, the “levels of IL-6” value with IL-6 (therapeutic: LPS activated macrophages then 10 μM for 12 h) is given as “significantly reduced”.
